Where “and” joins values, the source holds several entries; their conditions need not be identical. Identical values can stand only once.
What was measured:
[1] = Plasma concentration of AC, MA and HA in rats by LC-MS/MS; assay type: in vivo, rat; parameters: Plasma concentration: unit not given here; settings: for Plasma concentration: single animals
Procedure: 12 SD rats were randomly divided into Aconitum and Glycyrrhizae combind with Aconitum group, 6 rats in each group, 2 mL / kg was given by gavage respectively.

[2] = Metabolic stability (t1/2, CLint) of AC, MA and HA in RLMs of pretreated rats
[3] = tested on: CYP450; experiment: Effect of CYP450 inhibitors on metabolism of AC, MA and HA in rat liver microsomes; assay type: in vitro ADME; settings: RLMs
Procedure: 1 mg / ML microsome 100 μL, PBS 75 μL and aconitine alkaloids 5 μL (AC, MA and HA: 1 mmol / L) were added. 20 μL NADPH (10 mmol / L) was added to start the reactionand, AC and HA were incubated for 90 min, MA were incubated for 120 min. The reaction was terminated by adding 200 μL glacial acetonitrile, 12 000 r / min at 4°C for 10 min, and 20 μL supernatant was used for HPLC.
Added microsome 100 μL, PBS 75 μL, aconitine alkaloids 5 μL, inhibitors (furatheophylline: 0.2 mmol / L, sulfabendazole: 0.4 mmol / L, quinidine: 0.1 mmol / L, ketoconazole: 0.04 mmol / L) 10 μL. The operation of HPLC was as above. The effect of CYP450 inhibitors on the metabolism of Aconitum alkaloids was calculated. The formula is as follows:
% inhibition = Peak area of X after adding inhibitor / Peak area of X before adding inhibitor × 100%, where X is metabolites of AC, MA and HA.

[4] = RLMs of rats pretreated with Glycyrrhizae 0.33 g/kg
[5] = RLMs of rats pretreated with Glycyrrhizae 1 g/kg
[6] = RLMs of rats pretreated with Glycyrrhizae 3 g/kg
[7] = RLMs of rats pretreated with Phenobarbital 0.08 g/kg
[8] = AC 90 min, ketoconazole stock 0.04 mmol/L
[9] = MA 120 min, ketoconazole stock 0.04 mmol/L

For COC[C@]12CN(C)[C@@H]3[C@@H]4[C@H](OC)[C@H]1[C@@]3([C@@H](OC)C[C@H]2O)[C@@H]1C[C@@]2(O)[C@H](OC(=O)c3ccccc3)[C@@H]1[C@]4(OC(C)=O)[C@@H](O)[C@@H]2OC [MA, mesaconitine], the “plasma concentration with compatibility of Glycyrrhizae and Aconitum vs Aconitum alone” value ([1]; 2 mL/kg by gavage) was “significantly lower”, the Plasma concentration ([1]; Aconitum 2 mL/kg gavage, 10 min) was 0.104 and 0.259 and 0.0838 and 0.0908 and 0.0264 and the Plasma concentration ([1]; Aconitum 2 mL/kg gavage, 20 min) was 0.112 and 0.306 and 0.0799 and 0.129 and 0.0672. The Plasma concentration ([1]; Aconitum 2 mL/kg gavage, 30 min) was 0.141 (2×) and 0.315 and 0.127 and 0.051, the Plasma concentration ([1]; Aconitum 2 mL/kg gavage, 45 min) was 0.131 and 0.358 and 0.138 and 0.0993 and 0.054 and the Plasma concentration ([1]; Aconitum 2 mL/kg gavage, 60 min) was 0.209 and 0.452 and 0.123 and 0.0971 and 0.0527. The Plasma concentration ([1]; Aconitum 2 mL/kg gavage, 90 min) was 0.212 and 0.258 and 0.0872 and 0.0822 and 0.0482, the Plasma concentration ([1]; Aconitum 2 mL/kg gavage, 120 min) was 0.151 and 0.279 and 0.0558 and 0.0592 and 0.0337 and the Plasma concentration ([1]; Aconitum 2 mL/kg gavage, 240 min) was 0.067 and 0.0621 and 0.0139 and 0.0294 and 0.00782. The Plasma concentration ([1]; Aconitum 2 mL/kg gavage, 360 min) was 0.0249 and 0.0364 and 0 (2×) and 0.0208, the Plasma concentration ([1]; Aconitum 2 mL/kg gavage, 480 min) was 0.00513 and 0 (4×) and the Plasma concentration ([1]; Glycyrrhizae + Aconitum 2 mL/kg gavage, 10 min) was 0.0924 and 0.061 and 0.0433 and 0.0157 and 0.04. The Plasma concentration ([1]; Glycyrrhizae + Aconitum 2 mL/kg gavage, 20 min) was 0.0183 and 0.062 and 0.0517 and 0.0185 and 0.0482, the Plasma concentration ([1]; Glycyrrhizae + Aconitum 2 mL/kg gavage, 30 min) was 0.0382 and 0.0796 and 0.0589 and 0.0258 and 0.0568 and the Plasma concentration ([1]; Glycyrrhizae + Aconitum 2 mL/kg gavage, 45 min) was 0.0446 and 0.0702 and 0.0601 and 0.0125 and 0.0651. For the same compound, the Plasma concentration ([1]; Glycyrrhizae + Aconitum 2 mL/kg gavage, 60 min) was 0.0304 and 0.0692 and 0.0418 and 0.0207 and 0.0668, the Plasma concentration ([1]; Glycyrrhizae + Aconitum 2 mL/kg gavage, 90 min) was 0.038 and 0.0469 and 0.0364 and 0.0228 and 0.0572 and the Plasma concentration ([1]; Glycyrrhizae + Aconitum 2 mL/kg gavage, 120 min) was 0.0276 and 0.0368 and 0.0358 and 0.0326 and 0.0683. For the same compound, the Plasma concentration ([1]; Glycyrrhizae + Aconitum 2 mL/kg gavage, 240 min) was 0.00794 and 0.0109 and 0.0106 and 0.00771 and 0.0278, the Plasma concentration ([1]; Glycyrrhizae + Aconitum 2 mL/kg gavage, 360 min) was 0.00417 and 0.00296 and 0 and 0.0025 and 0.0106 and the Plasma concentration ([1]; Glycyrrhizae + Aconitum 2 mL/kg gavage, 480 min) was 0. The CLint ([2]; RLMs of Control rats) was 16.00±0.40 μL/min/mg protein, the t1/2 ([2]; RLMs of Control rats) was 2.8887 ± 0.0722 h and the CLint [2, 4] was 17.73±0.23 μL/min/mg protein. The t1/2 [2, 4] was 2.6055 ± 0.0337 h, the CLint [2, 5] was 18.80±0.04 μL/min/mg protein and the t1/2 [2, 5] was 2.4582 ± 0.0522 h. For the same compound, the CLint [2, 6] was 17.87±0.83 μL/min/mg protein, the t1/2 [2, 6] was 2.5895 ± 0.118 h and the CLint [2, 7] was 19.60±0.40 μL/min/mg protein. The t1/2 [2, 7] was 2.358 ± 0.048 h.

In the case of Cc1nc2c([nH]1)c(=O)n(C)c(=O)n2Cc1ccco1 [furaphylline], the “effect on the metabolism of AC, MA and HA” value ([3]; stock 0.2 mmol/L) is reported as “no significant effect”.

With CC(=O)N1CCN(c2ccc(OCC3COC(Cn4ccnc4)(c4ccc(Cl)cc4Cl)O3)cc2)CC1 (stereo not shown) [ketoconazole] the “production of AC metabolite A1, difference vs control” value [3, 8] was -0.2416 ± 0.0644, the “production of AC metabolite A2, difference vs control” value [3, 8] was -0.4708 ± 0.02905 and the “production of AC metabolite A3, difference vs control” value [3, 8] was -0.4643 ± 0.06743. For the same compound, the “production of HA metabolite H2, difference vs control” value ([3]; HA 90 min) was -0.4161 ± 0.01634, the “production of HA metabolite H1, difference vs control” value ([3]; HA 90 min, ketoconazole stock 0.04 mmol/L) was -0.4482 ± 0.05543 and the “production of MA metabolite M1, difference vs control” value [3, 9] was -0.4085 ± 0.07279. The “production of MA metabolite M2, difference vs control” value [3, 9] was -0.3312 ± 0.06126 and the “production of MA metabolite M3, difference vs control” value [3, 9] was -0.3905 ± 0.01824.
